Tests used:
Phakopsora Pachyrhizi = test: Fungicidal activity against Phakopsora pachyrhizi / soybean / leaf disc preventative (Asian soybean rust); type: in vivo; settings: foliar, 200 ppm in the applied formulation, soybean leaf disks, compared to untreated control leaf disks, read-out: disease control
How it was run: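 Preventative soybean leaf-disc test: discs on water agar sprayed with diluted formulated compound, inoculated one day later with spores on the lower surface. Held 24–36 h dark at 20°C, 75% rh, then 12 h light/day; percent disease control versus untreated discs scored 12–14 days after application.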

[1] = tested on: Puccinia recondita f. Sp. Tritici; test: Fungicidal activity against Puccinia recondita f. sp. tritici / wheat / leaf disc preventative (brown rust); type: in vivo; settings: foliar, 200 ppm in the applied formulation, wheat leaf segments, preventative, compared to untreated control leaf disks, read-out: disease control
How it was run: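 Preventative leaf-segment test, wheat cv. Kanzler on water agar. Spray compound at 200 ppm, inoculate with spores 1 day later; 19° C., 75% rh, 12/12 h light. Read-out: % disease control vs untreated, 7 to 9 days after application.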

[2] = tested on: Puccinia recondita f. Sp. Tritici; test: Fungicidal activity against Puccinia recondita f. sp. tritici / wheat / leaf disc curative (brown rust); type: in vivo; settings: foliar, 24 h, 200 ppm in the applied formulation, wheat leaf segments, curative (applied 1 day after inoculation), compared to untreated control leaf disks, read-out: disease control
How it was run: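 Segments of wheat cv. Kanzler were laid on agar and inoculated with a spore suspension of the rust, then held in darkness at 19° C and 75% relative humidity. One day later the water-diluted formulated compound was applied, with incubation continued under a 12 h light/dark cycle.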

[3] = tested on: Glomerella lagenarium (Colletotrichum lagenarium); test: Fungicidal activity against Glomerella lagenarium (Colletotrichum lagenarium) liquid culture / cucumber / preventative (anthracnose); type: cell-based; settings: Colletotrichum orbiculare; 20 ppm in the applied formulation; liquid culture (PDB), growth inhibition measured photometrically after 3 to 4 days; compared to untreated control; read-out: disease control
How it was run: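 Photometric read-out of fungal growth after 2–7 days, expressed as percent antifungal activity versus untreated check. Cryo-stored conidia in PDB; compound at 20 ppm; dark, 24 °C, 96% RH.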

CC1(C(=O)N(Cc2ccc(-c3noc(C(F)(F)F)n3)cc2)CC(F)(F)F)COC1 [Compound 1.698, 3-methyl-N-(2,2,2-trifluoroethyl)-N-[[4-[5-(trifluoromethyl)-1,2,4-oxadiazol-3-yl]phenyl]methyl]-oxetane-3-carboxamide]
≥ 80%: pest or weed control at 200 ppm (Phakopsora Pachyrhizi) | pest or weed control at 200 ppm [1] | pest or weed control at 200 ppm [2] | inhibition of growth at 20 ppm [3]

C=CCN(Cc1ccc(-c2noc(C(F)(F)F)n2)cc1)C(=O)C1CC1 [Compound 1.494, N-allyl-N-[[4-[5-(trifluoromethyl)-1,2,4-oxadiazol-3-yl]phenyl]methyl]-cyclopropane-carboxamide]
≥ 80%: pest or weed control at 200 ppm (Phakopsora Pachyrhizi) | pest or weed control at 200 ppm [1] | pest or weed control at 200 ppm [2] | inhibition of growth at 20 ppm [3]

C#CCN(Cc1ccc(-c2noc(C(F)(F)F)n2)cc1)C(=O)C1CCCC1 [Compound 1.168, N-prop-2-ynyl-N-[[4-[5-(trifluoromethyl)-1,2,4-oxadiazol-3-yl]phenyl]methyl]-cyclopentane-carboxamide]
≥ 80%: pest or weed control at 200 ppm (Phakopsora Pachyrhizi) | pest or weed control at 200 ppm [1] | pest or weed control at 200 ppm [2] | inhibition of growth at 20 ppm [3]

CC(=O)ON(Cc1ccc(-c2noc(C(F)(F)F)n2)cc1)C(C)=O [Compound 1.776, (acetyl-[[4-[5-(trifluoromethyl)-1,2,4-oxadiazol-3-yl]phenyl]methyl]-amino] acetate]
≥ 80%: pest or weed control at 200 ppm (Phakopsora Pachyrhizi) | pest or weed control at 200 ppm [1] | pest or weed control at 200 ppm [2] | inhibition of growth at 20 ppm [3]

C#CCN(Cc1ccc(-c2noc(C(F)(F)F)n2)cc1)C(=O)C(=C)C [Compound 1.187, 2-methyl-N-prop-2-ynyl-N-[[4-[5-(trifluoromethyl)-1,2,4-oxadiazol-3-yl]phenyl]methyl]-prop-2-enamide]
≥ 80%: pest or weed control at 200 ppm (Phakopsora Pachyrhizi) | pest or weed control at 200 ppm [1] | pest or weed control at 200 ppm [2] | inhibition of growth at 20 ppm [3]

COCCN(Cc1ccc(-c2noc(C(F)(F)F)n2)cc1)C(=O)C1CCCCO1 (centres unmarked) [Compound 1.324, N-(2-methoxyethyl)-N-[[4-[5-(trifluoromethyl)-1,2,4-oxadiazol-3-yl]phenyl]methyl]-tetrahydropyran-2-carboxamide]
≥ 80%: pest or weed control at 200 ppm (Phakopsora Pachyrhizi) | pest or weed control at 200 ppm [1] | pest or weed control at 200 ppm [2] | inhibition of growth at 20 ppm [3]

CCCN(Cc1ccc(-c2noc(C(F)(F)F)n2)cc1)C(=O)C1CCOC1 (centres unmarked) [Compound 1.654, N-propyl-N-[[4-[5-(trifluoromethyl)-1,2,4-oxadiazol-3-yl]phenyl]methyl]-tetrahydrofuran-3-carboxamide]
≥ 80%: pest or weed control at 200 ppm (Phakopsora Pachyrhizi) | pest or weed control at 200 ppm [1] | pest or weed control at 200 ppm [2] | inhibition of growth at 20 ppm [3]

CN(Cc1ccc(-c2noc(C(F)(F)F)n2)cc1)C(=O)C1(C)COC1 [Compound 1.527, N,3-dimethyl-N-[[4-[5-(trifluoromethyl)-1,2,4-oxadiazol-3-yl]phenyl]methyl]-oxetane-3-carboxamide]
≥ 80%: pest or weed control at 200 ppm (Phakopsora Pachyrhizi) | pest or weed control at 200 ppm [1] | pest or weed control at 200 ppm [2] | inhibition of growth at 20 ppm [3]

CON(Cc1ccc(-c2noc(C(F)(F)F)n2)cc1)C(=O)NCC(C)C [Compound 3.13, 3-isobutyl-1-methoxy-1-[[4-[5-(trifluoromethyl)-1,2,4-oxadiazol-3-yl]phenyl]methyl]urea]
≥ 80%: pest or weed control at 200 ppm (Phakopsora Pachyrhizi) | pest or weed control at 200 ppm [1] | pest or weed control at 200 ppm [2] | inhibition of growth at 20 ppm [3]

COCCC(=O)N(Cc1ccc(-c2noc(C(F)(F)F)n2)cc1)CC1CC1 [Compound 1.217, N-(cyclopropylmethyl)-3-melhoxy-N-[[4-[5-(trifluoromethyl)-1,2,4-oxadiazol-3-yl]phenyl]methyl]-propanamide]
≥ 80%: pest or weed control at 200 ppm (Phakopsora Pachyrhizi) | pest or weed control at 200 ppm [1] | pest or weed control at 200 ppm [2] | inhibition of growth at 20 ppm [3]

CCON(Cc1ccc(-c2noc(C(F)(F)F)n2)cc1)C(=O)C1(C)CC1 [Compound 1.621, N-ethoxy-1-methyl-N-[[4-[5-(trifluoromethyl)-1,2,4-oxadiazol-3-yl]phenyl]methyl]-cyclopropane-carboxamide]
≥ 80%: pest or weed control at 200 ppm (Phakopsora Pachyrhizi) | pest or weed control at 200 ppm [1] | pest or weed control at 200 ppm [2] | inhibition of growth at 20 ppm [3]

CC(=O)N(Cc1ccc(-c2noc(C(F)(F)F)n2)cc1)CC(F)(F)F [Compound 1.705, N-(2,2,2-trifluoroethyl)-N-[[4-[5-(trifluoromethyl)-1,2,4-oxadiazol-3-yl]phenyl]methyl]-acetamide]
≥ 80%: pest or weed control at 200 ppm (Phakopsora Pachyrhizi) | pest or weed control at 200 ppm [1] | pest or weed control at 200 ppm [2] | inhibition of growth at 20 ppm [3]

CON(Cc1ccc(-c2noc(C(F)(F)F)n2)c(F)c1)C(=O)C1CCCO1 (centres unmarked) [Compound 1.578, N-[[3-fluoro-4-[5-(trifluoromethyl)-1,2,4-oxadiazol-3-yl]phenyl]methyl]-N-methoxy-tetrahydrofuran-2-carboxamide]
≥ 80%: pest or weed control at 200 ppm (Phakopsora Pachyrhizi) | pest or weed control at 200 ppm [1] | pest or weed control at 200 ppm [2] | inhibition of growth at 20 ppm [3]

C=CCN(Cc1ccc(-c2noc(C(F)(F)F)n2)cc1)C(=O)COC [Compound 1.479, N-allyl-2-methoxy-N-[[4-[5-(trifluoromethyl)-1,2,4-oxadiazol-3-yl]phenyl]methyl]-acetamide]
≥ 80%: pest or weed control at 200 ppm (Phakopsora Pachyrhizi) | pest or weed control at 200 ppm [1] | pest or weed control at 200 ppm [2] | inhibition of growth at 20 ppm [3]

CON(Cc1ccc(-c2noc(C(F)(F)F)n2)cc1)C(=O)C1CCOC1 (centres unmarked) [Compound 1.29, N-methoxy-N-[[4-[5-(trifluoromethyl)-1,2,4-oxadiazol-3-yl]phenyl]methyl]-tetrahydrofuran-3-carboxamide]
≥ 80%: pest or weed control at 200 ppm (Phakopsora Pachyrhizi) | pest or weed control at 200 ppm [1] | pest or weed control at 200 ppm [2] | inhibition of growth at 20 ppm [3]

CCC(COC)C(=O)N(O)Cc1ccc(-c2noc(C(F)(F)F)n2)cc1 (centres unmarked) [Compound 1.768, N-hydroxy-2-(methoxymethyl)-N-[[4-[5-(trifluoromethyl)-1,2,4-oxadiazol-3-yl]phenyl]methyl]-butanamide]
≥ 80%: pest or weed control at 200 ppm (Phakopsora Pachyrhizi) | pest or weed control at 200 ppm [1] | pest or weed control at 200 ppm [2] | inhibition of growth at 20 ppm [3]

CCON(Cc1ccc(-c2noc(C(F)(F)F)n2)cc1)C(=O)N(C)OC [Compound 3.7, 1-ethoxy-3-methoxy-3-methyl-1-[[4-[5-(trifluoromethyl)-1,2,4-oxadiazol-3-yl]phenyl]methyl]urea]
≥ 80%: pest or weed control at 200 ppm (Phakopsora Pachyrhizi) | pest or weed control at 200 ppm [1] | pest or weed control at 200 ppm [2] | inhibition of growth at 20 ppm [3]

CCON(Cc1ccc(-c2noc(C(F)(F)F)n2)cc1)C(=O)CCOC [Compound 1.618, N-ethoxy-3-methoxy-N-[[4-[5-(trifluoromethyl)-1,2,4-oxadiazol-3-yl]phenyl]methyl]-propanamide]
≥ 80%: pest or weed control at 200 ppm (Phakopsora Pachyrhizi) | pest or weed control at 200 ppm [1] | pest or weed control at 200 ppm [2] | inhibition of growth at 20 ppm [3]

CC1CC1C(=O)N(Cc1ccc(-c2noc(C(F)(F)F)n2)cc1)CC1CC1 (centres unmarked) [Compound 1.223, N-(cyclopropylmethyl)-2-methyl-N-[[4-[5-(trifluoromethyl)-1,2,4-oxadiazol-3-yl]phenyl]methyl]-cyclopropane-carboxamide]
≥ 80%: pest or weed control at 200 ppm (Phakopsora Pachyrhizi) | pest or weed control at 200 ppm [1] | pest or weed control at 200 ppm [2] | inhibition of growth at 20 ppm [3]

C#CCN(Cc1ccc(-c2noc(C(F)(F)F)n2)cc1)C(=O)c1ccccc1 [Compound 1.202, N-prop-2-ynyl-N-[[4-[5-(trifluoromethyl)-1,2,4-oxadiazol-3-yl]phenyl]methyl]-benzamide]
≥ 80%: pest or weed control at 200 ppm (Phakopsora Pachyrhizi) | pest or weed control at 200 ppm [1] | pest or weed control at 200 ppm [2] | inhibition of growth at 20 ppm [3]

CC(C)N(Cc1ccc(-c2noc(C(F)(F)F)n2)cc1)C(=O)C1(C)CC1 [Compound 1.677, N-isopropyl-1-methyl-N-[[4-[5-(trifluoromethyl)-1,2,4-oxadiazol-3-yl]phenyl]methyl]-cyclopropane-carboxamide]
≥ 80%: pest or weed control at 200 ppm (Phakopsora Pachyrhizi) | pest or weed control at 200 ppm [1] | pest or weed control at 200 ppm [2] | inhibition of growth at 20 ppm [3]

CC(=O)NCC(=O)N(C)Cc1ccc(-c2noc(C(F)(F)F)n2)cc1 [Compound 1.521, 2-acetamido-N-methyl-N-[[4-[5-(trifluoromethyl)-1,2,4-oxadiazol-3-yl]phenyl]methyl]-acetamide]
≥ 80%: pest or weed control at 200 ppm (Phakopsora Pachyrhizi) | pest or weed control at 200 ppm [1] | pest or weed control at 200 ppm [2] | inhibition of growth at 20 ppm [3]

CC1CC1C(=O)N(CCO)Cc1ccc(-c2noc(C(F)(F)F)n2)cc1 (centres unmarked) [Compound 1.717, N-(2-hydroxyethyl)-2-methyl-N-[[4-[5-(trifluoromethyl)-1,2,4-oxadiazol-3-yl]phenyl]methyl]-cyclopropane-carboxamide]
≥ 80%: pest or weed control at 200 ppm (Phakopsora Pachyrhizi) | pest or weed control at 200 ppm [1] | pest or weed control at 200 ppm [2] | inhibition of growth at 20 ppm [3]

Source: US11180462B2, “Microbiocidal oxadiazole derivatives” (SYNGENTA PARTICIPATIONS AG, priority 2015, dated 2021)
